Measured values taken from patent publication US10414765B2, “Substituted perhydropyrrolo[3,4-c]pyrrole derivatives and the use of same” (BAYER PHARMA AKTIENGESELLSCHAFT, priority 2015, dated 2019).

Columns and labels:
Type in all cases: cell-based
human TASK-1 [1] = target: T1, human TASK-1 (Homo sapiens (Human), UniProt O14649); assay: Two-electrode voltage clamp of human TASK-1 channels expressed in Xenopus laevis oocytes
Protocol: (§1) B-1. In Vitro Electrophysiological Analysis of the Human TASK-1 and TASK-3 Channels Via Two-Electrode Voltage Clamp Technique in Xenopus laevis Oocytes
(§2) Xenopus laevis oocytes were selected as described elsewhere by way of illustration [Decher et al., FEBS Lett. 492, 84-89 (2001)]. Subsequently, the oocytes were injected with 0.5-5 ng of a cRNA solution coding for TASK-1 or TASK-3. For the electrophysiological analysis of the channel proteins expressed in the oocytes, the two-electrode voltage clamp technique [Stiihmer, Methods Enzymol. 207, 319-339 (1992)] was used. The measurements were conducted as described [Decher et al., FEBS Lett. 492, 84-89 (2001)] at room temperature (21-22° C.) using a Turbo TEC 10CD amplifier (NPI), recorded at 2 kHz and filtered with 0.4 kHz. Substance administration was performed using a gravitation-driven perfusion system. Here, the oocyte is located in a measuring chamber and exposed to the solution stream of 10 ml/min. The level in the measuring chamber is monitored and regulated by sucking off the solution using a peristaltic pump.

human TASK-1 [2] = target: T1, human TASK-1; assay: Inhibition of recombinant TASK-1 in stably transfected CHO cells (voltage-sensitive dye, 40 mM KCl depolarization); details: 40 mM potassium chloride
Protocol: (§3) B-2. Inhibition of Recombinant TASK-1 and TASK-3 In Vitro
(§4) The investigations on the inhibition of the recombinant TASK-1 and TASK-3 channels were conducted using stably transfected CHO cells. The compounds according to the invention were tested in this case by application of 40 mM potassium chloride in the presence of a voltage-sensitive dye according to the methods described in detail in the following references [Whiteaker et al., Validation of FLIPR membrane potential dye for high-throughput screening of potassium channel modulators, J. Biomol. Screen. 6 (5), 305-312 (2001); Molecular Devices FLIPR Application Note: Measuring membrane potential using the FLIPR® membrane potential assay kit on Fluorometric Imaging Plate Reader (FLIPR®) systems, http://www.moleculardevices.com/reagents-supplies/assay-kits/ion-channels/flipr-membrane-potential-assay-kits]. The activity of the test substances was determined as their ability to inhibit a depolarization induced in the recombinant cells by 40 mM potassium chloride. The concentration which can block half of this depolarization is referred to as IC50.

human TASK-3 [3] = target: T2, human TASK-3 (Homo sapiens (Human), UniProt Q9NPC2); assay: Two-electrode voltage clamp of human TASK-3 channels expressed in Xenopus laevis oocytes
T2 sequence (Q9NPC2 whole entry): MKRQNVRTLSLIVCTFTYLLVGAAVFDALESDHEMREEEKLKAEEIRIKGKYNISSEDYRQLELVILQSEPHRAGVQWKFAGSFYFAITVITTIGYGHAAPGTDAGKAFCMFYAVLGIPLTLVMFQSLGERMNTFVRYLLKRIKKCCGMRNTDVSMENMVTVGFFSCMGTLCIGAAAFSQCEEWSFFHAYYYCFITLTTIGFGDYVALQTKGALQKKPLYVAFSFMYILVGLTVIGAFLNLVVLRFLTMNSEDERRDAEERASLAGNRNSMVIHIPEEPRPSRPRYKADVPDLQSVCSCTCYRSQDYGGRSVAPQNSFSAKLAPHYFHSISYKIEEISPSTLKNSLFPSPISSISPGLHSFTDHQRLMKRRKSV
Protocol: as §1, §2

human TASK-3 [4] = target: T2, human TASK-3; assay: Inhibition of recombinant TASK-3 in stably transfected CHO cells (voltage-sensitive dye, 40 mM KCl depolarization); details: 40 mM potassium chloride
Protocol: as §3, §4

T1 sequence (O14649 whole entry): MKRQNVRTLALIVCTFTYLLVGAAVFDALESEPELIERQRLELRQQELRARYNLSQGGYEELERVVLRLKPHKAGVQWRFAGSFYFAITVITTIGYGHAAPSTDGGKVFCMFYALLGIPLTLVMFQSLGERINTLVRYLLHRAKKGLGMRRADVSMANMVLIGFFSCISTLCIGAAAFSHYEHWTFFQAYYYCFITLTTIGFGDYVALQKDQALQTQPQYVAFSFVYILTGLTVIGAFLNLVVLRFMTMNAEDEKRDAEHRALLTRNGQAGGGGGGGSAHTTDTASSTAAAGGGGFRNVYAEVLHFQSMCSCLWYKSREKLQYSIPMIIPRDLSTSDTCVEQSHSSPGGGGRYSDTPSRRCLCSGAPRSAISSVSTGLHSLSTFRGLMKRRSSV

SMILES | IC50 (human TASK-1 [1]) [nM] | IC50 (human TASK-1 [2]) [nM] | IC50 (human TASK-3 [3]) [nM] | IC50 (human TASK-3 [4]) [nM]
COc1cccc(C(=O)N2CC3CN(Cc4c(-c5ccc(C(C)C)cc5)nc5ccccn45)CC3C2)n1 (stereo not drawn) [Example 25] | 62.2 ± 7.9 | 230 | 44.1 ± 5.8 | 410
COc1cccc(C(=O)N2CC3CN(Cc4c(-c5ccc(Br)cc5)nc5ccccn45)CC3C2)c1 (stereo not drawn) [Example 10] | 31.2 ± 1.7 | 206 | 970 ± 220 | 485
COc1cccc(C(=O)N2CC3CN(Cc4c(-c5ccc(Cl)cc5)nc5ccccn45)CC3C2)c1 (stereo not drawn) [Example 17] | 9.3 ± 2.5 | 721 | 21.8 ± 2.2 | 1900
